Assay in all cases: MIC by agar-dilution technique, Diagnostic Sensitivity Test
Format in all cases: cell-based

For one assay, the system named is P. morganii I + 001. Particulars: Morganella morganii, inoculum 10^4 CFU/spot, read-out: minimum inhibitory concentration (MIC). The text has this:
(§1) The following results were obtained for representative compounds on a standard in vitro test system using Diagnostic Sensitivity Test. The antibacterial activity is described in terms of the minimum inhibitory concentration (MIC) determined by the agar-dilution technique with an inoculum size of 10^4 CFU/spot.

A further assay deals with B. fragilis AMP S. The settings on record: Bacteroides fragilis, inoculum 10^4 CFU/spot, read-out: minimum inhibitory concentration (MIC).
Excerpt: as §1

For assay [1], the system named is Enterobacter cloacae P99-. The settings on record: P99, read-out: minimum inhibitory concentration (MIC).
Excerpt: as §1

Another assay concerns E. coli DCO. The settings on record: Escherichia coli, inoculum 10^4 CFU/spot, read-out: minimum inhibitory concentration (MIC).
Excerpt: as §1

In another assay the test system is S. aureus Oxford. Particulars: Staphylococcus aureus, inoculum 10^4 CFU/spot, read-out: minimum inhibitory concentration (MIC).
Excerpt: as §1

Where a name gives a salt, the structure may show the parent alone.

On to `C[C@@H](O)[C@H]1C(=O)N2C(C(=O)O)=C(S[C@@H]3CN[C@H](C(=O)Nc4nc(C(=O)O)cs4)C3)[C@H](C)[C@H]12` [Example 2, (1R,5S,6S,8R,2'S,4'S)-2-(2-(4-Carboxy-2-thiazolylcarbamoyl)pyrrolidin-4-ylthio)-6-(1-hydroxyethyl)71-methylcarbapenem-3-carboxylic acid, disodium salt], for which the MIC turned out to be 0.03 µg/mL in the assay with P. morganii I + 001; 0.5 µg/mL in the assay on B. fragilis AMP S; 0.03 µg/mL in assay [1]; 0.03 µg/mL in the assay on E. coli DCO; 0.25 µg/mL in the assay on S. aureus Oxford.

Source of the values: patent US5527793A, “Antibiotic carbapenem compounds” (Zeneca Limited, priority 1992, dated 1996).
